Assay results from PMC5090206, “Fluselenamyl: A Novel Benzoselenazole Derivative for PET Detection of Amyloid Plaques (Aβ) in Alzheimer’s Disease” (Scientific Reports, 2016).

Molecular target: Aβ plaques (Homo sapiens, UniProt P05067)
Assay: MicroPET/CT imaging in APP/PS1 and WT mice
Type: in vivo
Conditions: for distribution volume ratio (DVR): cortical ROI, cerebellum reference, RefLogan
Protocol: To directly access the potential of [^18F]-9 to bind Aβ plaques in vivo, we performed microPET/CT imaging in age-matched APP^+/−/PS1^+/− mice (n = 3) compared their WT counterparts, 5 min-2 h post tail-vein injection. […] Time activity curves (TAC) also indicated higher retention of activity within transgenic mice brains compared with their WT counterparts (Fig. 10). Additionally, ROI (cortical regions) were also analyzed using linearized method with a reference region (cerebellum) via Reference Logan plot (RefLogan), and distribution volume ratios (DVR) were obtained. The analysis indicated a statistically significant DVR value of 1.18 for transgenic mice brain compared with that of 1.03 for WT brains. These smaller differences in DVR values of targeted regions in transgenic mice compared with that of WT counterparts could also be attributed to a lack of true negative reference region in aged PS1/APP mice[57]. […] The differences between these tracers in this rodent model could be attributed to ability of [^18F]-9 for targeting both diffuse and fibrillary plaques. To further evaluate, whether or not [^18F]-9 offers significant advantage over other approved tracers, the agent would need to be further investigated for its performance in other AD rodent models (APP23 and Tg2576).
Scientific Reports Version of August 4, 2016 approved guidelines. 15-month-old APP+/-/PS1+/- mice were imaged using intravital multiphoton microscopy to assess pharmacokinetic profiles of the 5. The thinned-skull cranial windows were prepared on the day prior to imaging, as previously described16-18. Briefly, mice were anesthetized under volatile isoflurane (2% induction, 1.5% maintenance), the scalp and periosteum were removed to expose the skull.
A speed drill and microsurgical blade (Surgistar) were used to thin the skull until the skull window ([…]
For imaging 5 labeled plaques, two-photon fluorescence was generated with 800 nm excitation, and fluorescent emission was detected in the range of 435-485nm. […]

Aβ plaques, sequence (P05067 672-711 limits assumed): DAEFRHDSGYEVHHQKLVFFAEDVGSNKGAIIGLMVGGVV

With `CN(C)c1ncc(/C=C\c2nc3cc(OCC[18F])ccc3[se]2)cn1` [[^18F]-9] the “higher retention in transgenic mice brains vs WT” value (APP+/−/PS1+/− vs WT mice, n = 3, p < 0.05) was 1.2 folds, the “distribution volume ratio (DVR)” value (WT brains) was 1.03 and the “distribution volume ratio (DVR)” value (transgenic mice brain) was 1.18.
